According to patent publication US10172911B2, “Methods of modulating erythropoiesis with arginine vasopressin receptor 1B molecules” (The United States of America, as represented by the …, priority 2013, dated 2019):
Entries after “also recorded” stand apart in the source; their conditions may differ.

Columns and labels:
[1] = system: CD34^+ cells from healthy donors; test: CFU assay (E-CFU, GM-CFU) of human CD34+ cells in Methocult; type: cell-based; conditions: for effect of pathway inhibitor on CFU increase elicited by AVP: 10^−8 M AVP; for effect of pathway inhibitor on CFU increase elicited by AVPR1B agonist: 10^−8 M AVPR1B agonist; for effect of pathway inhibitor on GM-CFU increase induced by OXT: 10^−8 M OXT
Protocol: CD34^+ cells from healthy donors were plated into semi-solid methylcellulose medium (Methocult) containing hematopoietic factors (GM-CSF 5 ng/ml, IL-3 5 ng/ml, SCF 50 ng/ml, EPO 2.5 U/ml).
The number of erythroid colony forming units (E-CFU) and granulocyte-macrophage colony forming units (GM-CFU) were determined based on morphological criteria on 7th and 14th days in culture.

human CD34^+ cells = test: BrdU cell proliferation assay, human CD34+ cells; type: cell-based
Protocol: (§1) Sorted mouse bone marrow LSK cells (10000 cells/well) were plated in a 96 well plate in Stemspan serum free expansion medium ([…] Technologies, Vancouver, Canada) with Pen/Strep, and the following hematopoietic factors: 100 ng/ml TPO, 50 ng/ml FLT3L, 50 ng/ml IL-3 and SCF 100 ng/ml (Peprotech, Rocky Hill, N.J.). Cells were treated with […] (Sigma-Aldrich, St. Louis, Mo.). When using human CD34^+ cells (5000 cells/well), human SCF, TPO, FLT3L and G-CSF (Peprotech, each at 50-100 ng/ml) were added to the Stemspan medium. Cells were treated with 10^−8M-10^−14M AVP. After 24 hours, BrdU at a 1:1000 concentration was added to the cultures and incorporation of BrdU was measured using the Cell Proliferation ELISA BrdU kit (Roche, Mannheim, Germany) after another 24 hours of incubation.

[2] = system: human CD34+ hematopoietic progenitors; test: Intracellular Ca2+ measurement in Fura-2 loaded human CD34+ hematopoietic progenitors; type: cell-based; conditions: human CD34+ cells; for intracellular calcium levels: agonist stimulation
Protocol: Human BMSCs were loaded with Fura-2 and the cells were stimulated with AVP, or OXT. Intracellular Ca^2+ concentration was assayed as described before (Ely, J. A. et al. J Biol Chem 266, 18635-18641 (1991). To study their response to AVP and specific AVP receptor agonists and antagonists human CD34+ hematopoietic progenitors were Fura-2 loaded and Cytoplasmic Ca2+ measurements were performed in cells kept in suspension using a fluorescence spectrophotometer (Deltascan, Photon Technology International). Ratiometric measurements were recorded at 340/380 nm excitation and 500 nm emission and the ratios were plotted against time. Ionomycin (10 μM) was added at the end of each run to determine the maximum fluorescence ratio.

Human BMSCs = test: BMSC signalling (ERK phosphorylation, cAMP, intracellular Ca2+); type: cell-based; conditions: BMSC cultures
Protocol: For cAMP quantitation, 8×10^5 per well human BMSCs were plated in 6 well plates and left to attach overnight. Next day, the medium was changed and the cells were stimulated with AVP or deamino-Cys^1, D-Arg^8 AVP (DDAVP, a V2 receptor agonist) at 10^−6 M for 4 minutes. Cells were washed with PBS and lysed with R&D cell lysis buffer. Cyclic AMP was measured with the R&D cAMP Parameter assay kit (R&D Systems, Minneapolis, Minn.) according to manufacturer's instructions. Total protein concentrations of the cell lysates were measured using the Micro BCA Protein Assay kit (Pierce, Rockford, Ill.) and cAMP amount was normalized to 100 μg of total protein.

[3] = system: mouse bone marrow LSK cells; test: BrdU cell proliferation assay, sorted mouse bone marrow LSK cells; type: cell-based; conditions: 10^−8M-10^−14M, 2 days culture
Protocol: as §1

C57BL6 male mice = test: Hemorrhage anemia model, Alzet pump delivery; type: in vivo, mouse; conditions: hemorrhage, FIG. 9D
Protocol: Mice were anesthetized with isoflurane. Twenty five percent of their calculated circulating blood volume (calculated based on Animal Research Advisory Committee Guidelines for survival bleeding of mice and rats, OACU, NIH) was drained from the retro-orbital plexus.
The reticulocyte ratio of peripheral blood was determined using the Retic-Count flow kit (BD Biosciences) according to the manufacturer's instructions. Hematocrit values were measured with an automated analyzer and microhematocrit tubes. The reticulocyte index was calculated as follows: reticulocyte ratio %/total gated cells×hematocrit/45.
To infuse vasopressin into the mice, AVP filled ALZET pumps were implanted subcutaneously on the dorsal aspect of the neck (5 ug/day, Alzet 1007D—7 days, 2002-14 days). Vasopressin was also given immediately and 6 hours later as a bolus injection (100 μg/kg). Alzet pumps were inserted subcutaneously. The dimensions and pump specification are: ALZET, (DURECT Corporation, Cupertino, Calif., USA) mini-osmotic pump models 1007D or 2002. The pumps deliver 0.5 μl/h of the desired substance for a for 2-week period. In some cases, erythropoietin antibody (100 μg/mice) was given before anesthesia with the corresponding control antibody. […] Following the initial hemorrhage blood samples were taken at 2, 4 and in some cases 6 days later to determine hematocrit and corrected reticulocyte values.

[4] = per 1000 plated CD34+ cells, 10^−8 M

Question: With “1L-6-hydroxymethyl-chiro-inositol 2-(R)-2-O-methyl-3-O-octadecylcarbonate [HIMO]” as the molecule, how does the “effect of pathway inhibitor on CFU increase elicited by AVP” value ([1]; Dkk1 200 ng/ml, HIMO 10^−8 M) read?
Answer: had no effect

Question: And the “effect of pathway inhibitor on CFU increase elicited by AVPR1B agonist” value ([1]; Dkk1 200 ng/ml, HIMO 10^−8 M)?
Answer: had no effect

Question: And the “effect of pathway inhibitor on GM-CFU increase induced by OXT” value ([1]; Dkk1 200 ng/ml, HIMO 10^−8 M)?
Answer: did block

Question: And the “GM-CFU numbers, inhibitor on its own” value ([1]; Dkk1 200 ng/ml, HIMO 10^−8 M)?
Answer: Neither Dkk1 nor HIMO affected GM-CFU numbers on their own

Question: With `COc1ccc(S(=O)(=O)N2C(=O)[C@@](c3ccccc3OC)(N3C[C@H](O)C[C@H]3C(=O)N(C)C)c3cc(Cl)ccc32)c(OC)c1` [AVPR1B antagonist, SSR 149415 - Nelivaptan] as the molecule, how does the “block of AVP / AVPR1B agonist induced proliferation of human HSPCs” value (human CD34^+ cells; antagonist) read?
Answer: blocked; also recorded: both effects were seen

Question: And the “block of the AVP-induced increase in calcium” value ([2]; antagonist)?
Answer: could be blocked

Question: Which “cyclic AMP” value (Human BMSCs; 10^−6 M for 4 minutes) does the source give for `NC(=O)CC[C@@H]1NC(=O)[C@H](Cc2ccccc2)NC(=O)[C@H](Cc2ccc(O)cc2)NC(=O)CCSSC[C@@H](C(=O)N2CCC[C@H]2C(=O)N[C@H](CCCN=C(N)N)C(=O)NCC(N)=O)NC(=O)[C@H](CC(N)=O)NC1=O` [AVPR2 agonist, deamino-Cys^1, D-Arg^8 AVP] here?
Answer: increase in cyclic AMP

Question: Which “proliferation (BrdU incorporation) of mouse LSK cells” value [3] does the source give for `CC[C@H](C)[C@@H]1NC(=O)[C@H](Cc2ccc(O)cc2)NC(=O)[C@@H](N)CSSC[C@@H](C(=O)N2CCC[C@H]2C(=O)N[C@@H](CC(C)C)C(=O)NCC(N)=O)NC(=O)[C@H](CC(N)=O)NC(=O)[C@H](CCC(N)=O)NC1=O` [OXT, oxytocin] here?
Answer: induced proliferation; also recorded: stimulated LSK proliferation

Question: What about the “proliferation (BrdU) of human CD34+ cells / HSPCs” value (human CD34^+ cells) of the same molecule?
Answer: responded to AVP and OXT in much the same way as mouse LSK cells did

Question: What about the ERK phosphorylation (Human BMSCs) of the same molecule?
Answer: induced ERK phosphorylation

Question: And the intracellular calcium (Human BMSCs)?
Answer: increase in intracellular Ca^2+ concentrations

Question: And the “granulocyte macrophage-colony forming unit (GM-CFU) numbers” value [1, 4]?
Answer: increased only GM-CFU numbers

Question: With `NC[C@H](O)c1ccc(O)c(O)c1` [noradrenaline] as the molecule, how does the “erythroid-colony forming unit (E-CFU) numbers” value [1, 4] read?
Answer: significantly increased

Question: With “[Phe2, Ile3, Orn8] Vasopressin [AVPR1A agonist]” as the molecule, how does the intracellular calcium levels [2] read?
Answer: did not respond

Question: dCha^4AVP was tested. Which intracellular calcium levels [2] did it give?
Answer: increased intra-cellular Ca^2+ concentrations

Question: What about the colony formation ([1]; 10^−8M) of the same molecule?
Answer: stimulated colony formation

Question: With d[Leu4, Lys8]-VP [dLeu^4Lys^8-VP] as the molecule, how does the recovery times (C57BL6 male mice) read?
Answer: significantly improved recovery times

Question: For desGlyAVP, which “proliferation (BrdU incorporation) of mouse LSK cells” value [3] is on record?
Answer: did not

B1: Dkk1: dickkopf related protein 1, Wnt pathway inhibitor (protein, UniProt O94907 32-266, looked up)
Dickkopf-related protein 1: TLNSVLNSNAIKNLPPPLGGAAGHPGSAVSAAPGILYPGGNKYQTIDNYQPYPCAEDEECGTDEYCASPTRGGDAGVQICLACRKRRKRCMRHAMCCPGNYCKNGICVSSDQNHFRGEIEETITESFGNDHSTLDGYSRRTTLSSKMYHTKGQEGSVCLRSSDCASGLCCARHFWSKICKPVLKEGQVCTKHRRKGSHGLEIFQRCYCGEGLSCRIQKDHHQASNSSRLHTCQRH
Question: B1 was tested. Which “effect of pathway inhibitor on CFU increase elicited by AVP” value ([1]; Dkk1 200 ng/ml, HIMO 10^−8 M) did it give?
Answer: blocked the increase in GM-CFU numbers

Question: What about the “effect of pathway inhibitor on CFU increase elicited by AVP” value ([1]; Dkk1 200 ng/ml, HIMO 10^−8 M, listed as DKK-1) of the same molecule?
Answer: did block

Question: What about the “effect of pathway inhibitor on CFU increase elicited by AVPR1B agonist” value ([1]; Dkk1 200 ng/ml, HIMO 10^−8 M) of the same molecule?
Answer: blocked the increase in GM-CFU numbers

Question: And the “effect of pathway inhibitor on GM-CFU increase induced by OXT” value ([1]; Dkk1 200 ng/ml, HIMO 10^−8 M)?
Answer: did not alter
